# Laboratory results reported in patent US20260258084A1, “New Peptides as Selective IL-23 Receptor Antagonists” (Sanofi, priority 2022, published 2026).
# Read-outs that look alike come from different tables or passages of the source. Starred links: 1 amine or outer side, 2 acyl side, 3 side chain; linkers in the order of their positions; H or OH if unused. Positions of bridges follow the written chain, without caps; N, C: chain ends. Non-standard residues stand in square brackets, D forms with d. Residues, ends and D or L forms follow the SMILES beside them. *: point of attachment. X3 = CN(CCCCC(=O)N[C@@H](CS[*:2])C(=O)[*:1])[*:3]; Trp(7-Me) = Cc1cccc2c(C[C@H](N)C(=O)O)c[nH]c12; X1 = O=C(CCCCN[*:3])N[C@@H](CS[*:2])C(=O)[*:1]; 2Nal = N[C@@H](Cc1ccc2ccccc2c1)C(=O)O; AEF = NCCOc1ccc(C[C@H](N)C(=O)O)cc1; 3Pal = N[C@@H](Cc1cccnc1)C(=O)O; Thp = NC1(C(=O)O)CCOCC1; Me2NCH2CH2 = CN(C)CC*; Aib = CC(C)(N)C(=O)O; Ava = NCCCCC(=O)O; Sar = CNCC(=O)O
# Assays:
# Pepsin = test system: T1, Pepsin; test: Protease stability in simulated gastric fluid (Pepsin-SGF, FaSSGF); assay type: in vitro ADME; conditions: simulated gastric fluid with pepsin (Pepsin-SGF), 60 min, 1 μM peptide, 37° C., read-out: FaSSGF 60 (min), remaining percent of peptide
# T1 construct: purchased Merck Millipore
# Method in brief: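 Peptides at 1 μM final in pepsin-containing SGF at 37° C, sampled at 0, 60, 120 and 240 min, quenched with ethanol (0.1% HCOOH). Analysed by LCMS/MS; percent remaining from peak area relative to time 0 (set to 100%).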
# [1] = test system: IL-23 induced STAT3 signaling in HEK-Blue™ IL-23 cells; test: IL-23 induced STAT3 signaling in HEK-Blue IL-23 cells (SEAP reporter); assay type: cell-based; conditions: human IL23 0.25 ng/ml, read-out: pSTAT3
# Method in brief: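 HEK-Blue IL-23 cells (10,000/well) pre-incubated 60 min at 37 °C with serially diluted peptides, then stimulated overnight with human IL-23 (0.25 ng/ml final). STAT3-driven SEAP in supernatant detected with QUANTI-Blue after 45 min at RT (OD 620-655 nm); dose-response curves fitted.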
# [2] = target: T2, human interleukin-23 receptor (recombinant human IL-23R-Fc chimera) (Homo sapiens, UniProt Q5VWK5); test: Human ELISA IL23/IL23R (assay for specific human IL23R antagonists); assay type: binding; conditions: Table 10; read-out: Human ELISA IL23/IL23R IC50
# T2 construct: Fc (IgG Fc fusion)
# Method in brief: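 Plates coated overnight at 4 °C with human IL23 ([…]), blocked, then serially diluted peptides added with recombinant human IL-23R-Fc (0.1 μg/ml final) for 60 min at room temperature. Bound receptor detected with anti-human IgG1-HRP and fluorogenic peroxidase substrate.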
# [3] = Chemical stability assessment of peptides (relative purity loss); assay type: physicochemical; conditions: 24 hours at 37° C.; for Chemical stability (relative purity loss) Buffer pH 1.2: 50 mM HCl pH 1.2 + acetonitrile (1:1); for Chemical stability (relative purity loss) Buffer pH 6.5: 50 mM phosphate buffer pH 6.5 + acetonitrile (1:1); for Chemical stability (relative purity loss) Buffer pH 7.4: 50 mM phosphate buffer pH 7.4 + acetonitrile (1:1)
# Method in brief: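 Peptide solutions at 1 mg/ml (purity-corrected) in 1:1 acetonitrile with 50 mM HCl pH 1.2, or 50 mM phosphate pH 6.5 or pH 7.4, held 24 hours at 2° C. and 37° C. Supernatants analysed by UHPLC-UV; relative purity loss taken as percent drop in peak-area purity from 0 to 24 hours at 37° C.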
# [4] = Solubility testing of peptides at different pH; assay type: physicochemical; conditions: target concentration 1 mg/ml, 2 hours agitation
# Method in brief: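 Solid obtained by drying down DMSO stock was taken up at 1 mg/mL in 50 mM HCl pH 1.2 or 50 mM phosphate pH 6.5, 7.4 or 9.0, agitated gently for 2 h, then filtered (0.45 μm). Solubility by UPLC-UV peak area against a DMSO reference standard curve, corrected for extinction coefficients.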
# [5] = 50 mM HCl buffer, 50 mM HCl pH 1.2, read-out: Solubility Buffer pH 1.2
# [6] = 50 mM phosphate buffer pH 6.5, read-out: Solubility Buffer pH 6.5
# [7] = 50 mM phosphate buffer pH 7.4, read-out: Solubility Buffer pH 7.4
# [8] = 50 mM phosphate buffer pH 9.0, read-out: Solubility Buffer pH 9.0
"remaining at 1 h, 1 µM (Pepsin) [%]",IC50 [2] [nM],Chemical stability (relative purity loss) Buffer pH 1.2 [3] [%],Chemical stability (relative purity loss) Buffer pH 6.5 [3] [%],Chemical stability (relative purity loss) Buffer pH 7.4 [3] [%],"solubility at 2 h [4, 5] [µg/mL]","solubility at 2 h [4, 6] [µg/mL]","solubility at 2 h [4, 7] [µg/mL]","solubility at 2 h [4, 8] [µg/mL]",Structure (SMILES),IC50 [1] [nM]
100,0.56,5.9,0.5,0.1,≥ 1000,≥ 890,640,130,CC(=O)N[C@H]1CCCCNC(=O)[C@@H]2CSSC[C@H](NC(=O)[C@H](CCC(N)=O)NC(=O)[C@H](Cc3c[nH]c4ccccc34)NC1=O)C(=O)N[C@@H](Cc1ccc(OCCN(C)C)cc1)C(=O)N[C@@H](Cc1ccc3ccccc3c1)C(=O)NC1(CCOCC1)C(=O)N[C@H](C(=O)N[C@@H](C)C(=O)N[C@H](CC(C)C)C(N)=O)CCC(=O)NCCCCC(=O)N2 [compound 33] (Ac-KWQCY(Me2NCH2CH2)[2Nal][Thp]EA[dL]-NH2; linker 1-4-8 via X1),53.8
84,0.4,7.2,0.0,0.4,≥ 1020,≥ 1100,≥ 1000,300,Cc1cccc2c(C[C@@H]3NC(=O)[C@H]([C@@H](C)O)NC(=O)[C@H](CC(N)=O)NC(=O)[C@@H]4CSSC[C@H](NC(=O)[C@H](CC(C)C)NC3=O)C(=O)N[C@@H](Cc3ccc(OCCN(C)C)cc3)C(=O)N[C@@H](Cc3ccc5ccccc5c3)C(=O)NC3(CCOCC3)C(=O)N[C@H](C(=O)N[C@@H](CC(N)=O)C(=O)N[C@@H](Cc3cccnc3)C(=O)N(C)CC(N)=O)CCC(=O)NCCCCC(=O)N4)c[nH]c12 [compound 24] ([Ava]CNT[Trp(7-Me)]LCY(Me2NCH2CH2)[2Nal][Thp]EN[3Pal][Sar]-NH2; disulfide 2-7; lactam N-11),0.59
30,0.2,14.3,2.9,5.1,≥ 970,≥ 960,≥ 910,670,CC(=O)N[C@H]1CCCCNC(=O)[C@@H]2CSSC[C@H](NC(=O)[C@H](CCC(N)=O)NC(=O)[C@H](Cc3c[nH]c4ccccc34)NC1=O)C(=O)N[C@@H](Cc1ccc(OCCN)cc1)C(=O)N[C@@H](Cc1ccc3ccccc3c1)C(=O)NC(C)(C)C(=O)N[C@H](C(=O)N[C@@H](CC(N)=O)C(=O)NCC(N)=O)CCC(=O)N(C)CCCCC(=O)N2 [compound 15] (Ac-KWQC[AEF][2Nal][Aib]ENG-NH2; linker 1-4-8 via X3),29.2
2,0.7,25.7,0.2,1.0,120,100,90,80,COc1ccc(C[C@@H]2NC(=O)[C@@H]3CSSC[C@H](NC(=O)CCC(=O)NCCCC[C@@H](C(=O)N[C@@H](CC(N)=O)C(=O)N[C@@H](CC(N)=O)C(N)=O)NC(=O)C(C)(C)NC(=O)[C@H](Cc4ccc5ccccc5c4)NC2=O)C(=O)N[C@@H](CC(N)=O)C(=O)N[C@@H]([C@@H](C)O)C(=O)N[C@@H](Cc2c[nH]c4ccccc24)C(=O)N[C@@H](CCC(N)=O)C(=O)N3)cc1 [compound 11],53.5
